Article PMC8746798, “Evaluation of 2-Thioxoimadazolidin-4-one Derivatives as Potent Anti-Cancer Agents through Apoptosis Induction and Antioxidant Activation: In Vitro and In Vivo Approaches” (Molecules, 2021)

Tests used:
HepG2 liver cancer cells = assay: MTT assay for cytotoxic screening, HepG2; type: cell-based, human; settings: Homo sapiens, HepG2, 48 h, mean ± SE, n = 3
Description: The in vitro anti-cancer activity was assessed using the MTT assay. […] Staurosporine and 5-FU were used as reference drugs. HepG2 cells (1 × 10^4 cells/well, 96-well plate) were maintained in DMEM media supplemented with 2mML-glutamine (Lonza, Verviers, Belgium) and 10% FBS (Sigma, St. Louis, MO, USA), 1% Penicillin/Streptomycin (Lonza, Verviers, Belgium) according to the routine culture work. Cultures were incubated for 48 h with serial dilutions (0.01, 0.1, 1, 10, 100 µM) of the tested compounds. Finally, cell viability was determined by measuring the absorbance λ570 nm according to the following formula: % of cell viability = (A sapmple/A control) ×100, then IC50 calculation was calculated using GraphPad Prism 7 software.

[1] = tested on: Caspase 3 and 9, Bcl-2, PI3K, AKT proteins in HepG2 cells; assay: Western blot of apoptosis-related proteins; type: cell-based, human; settings: treated HepG2 vs untreated control, normalized to β-actin
Description: Protein expression analysis for phosphorylated/total phosphatidylinositol 3-kinase (PI3K), protein kinase B (Akt), Caspase 3 and 9 proteins, and Bcl-2 was performed using the Western blotting technique to confirm the mechanism of apoptosis induction by compound 4 in HepG2 cells compared to control. Detailed methodology is supported in Supplementary Materials.

[2] = tested on: Solid Ehrlich carcinoma (SEC); assay: In vivo anti-tumor assay: tumor volume and tumor inhibition ratio; settings: SEC-bearing mice, 6 mg/kg; SEC control 5802 mm^3
Description: We used adult Swiss albino female mice with average body weight 18–23 g obtained from Theodor Bilharzia Research Institute in Giza, Egypt. Mice were kept under constant conditions of a 12 h light–dark cycle at temperatures below controlled moisture conditions (22 ± 2 °C) with standard laboratory mouse nutrition and water entries. Approval for the experimental protocol was provided from the ethical committee of Suez Canal University for this experimental protocol (approval number REC-06-2020, Faculty of Science, Suez Canal University). Mice were adapted for approximately 10 days before use in the experiment.
Solid Ehrlich carcinoma (SEC) was obtained from the National Cancer Institute (University of Cairo, Egypt). The tumor cell line proliferated in mice after serial implantation of the peritoneal cavity (I.P.) in 0.2 mL of physiological saline containing 1 × 10^6 viable cells for 24 h. […]
We measured the length and width of the tumor using a digital Vernier clipper (Tricle Brand, Shanghai, China), then we calculate the tumor volume using the formula: V = (L × W × W)/2, where V is tumor volume, W is tumor width, and L is tumor length, and calculated the tumor inhibition ratio% using the formula: TIR %= (C − T)/C × 100, where T represents mean tumor volume of treated group and C represents mean tumor volume of the control group.

[3] = tested on: P53, PUMA, Caspase 3, 8, 9, Bcl-2, PI3K, AKT genes in HepG2 cells; assay: Gene expression (RT-PCR) of apoptosis-related genes; type: cell-based, human; settings: HepG2, IC50 concentration, 48 h, control = 1
Description: The target genes of P53, PUMA, Caspases 3, 8, and 9, Bcl-2, PI3K, and AKT were chosen according to the interactive functional association network of the tested protein set using String bioinformatics database for analysis as shown in Supplementary Figure S1. HepG2 cells were treated for 48 h at 37 °C with the IC50 value of the compound 4 and followed by real-time PCR analysis for control and treated cells of the following genes, P53, PUMA, BCL2, CASP3, CASP8, CASP9, PI3k, and AKT, using the specific primers mentioned in Supplementary Table S3 compared to the control cells. Relative gene expression was calculated utilizing the ΔΔCT equation with normalization to the housekeeping beta-actin gene. Results were shown as a fold change in the mentioned gene expression in the treated versus control cells.
HepG2 cells were treated for 48 h at 37 °C with the IC50 value of the compound 4 and were collected for real-time PCR analysis with the perfect primer pairs (Supplementary, Table 1) of the following eight genes (P53, PUMA, BCL2, CASP3, CASP8, CASP9, PI3k and AKT) compared to the control cells, and for analysis first total RNA was extracted using RNeasy Mini Kit (Qiagen) following the manufacturer protocol of the kits than RNA was assessed for both the quality and quantity of RNA using NanoDrop ND-1000 spec-trophotometer at the absorbance ratio 260/280 nm [NanoDrop Tech., Inc. DE, USA]. Also, Whole RNA quality was examined by 1% agarose gel electrophoresis and afterward cDNA was obtained from one μg RNA using I-Script cDNA synthesis kit (BioRad). qRT-PCR were executed utilizing 10 ng of cDNA and Applied Biosystems Sybr Green master […]
conditions were 5 min [95 ◦C], followed by 45 cycles for 15 s [95 ◦C], for 60 s [58, 60, 62 ◦C] and for 1 min [72 ◦C] using applied Biosystems Step-One qRT-PCR (USA). Relative genes expression was finally calculated utilizing the ΔΔCT equation with normalization to that of the housekeeping beta-actin gene. Results were shown as fold change in gene expres-sion in the treated cells versus that of the control. […]

O=C1NC(=S)N(c2ccc(O)cc2)/C1=C/c1cccs1 [Compound 4, (E)-1-(4-Hydroxyphenyl)-5-(thiophen-2-ylmethylene)-2-thioxoimidazolidin-4-one]
IC50 (HepG2 liver cancer cells): 17 ± 4 nM
AKT protein level [1]: decreased
BCL2 protein level [1]: decreased
Caspase 3 protein level [1]: upregulated
Caspase 9 protein level [1]: upregulated
PI3K protein level [1]: decreased
tumor volume on the final day [2]: 2766 mm^3
AKT gene expression, fold change ([3]; reduced): 0.38 fold
BCL-2 gene expression, fold change ([3]; reduced): 0.25 fold
PI3K gene expression, fold change ([3]; reduced): 0.497 fold
Caspase 3 gene expression, fold change ([3]; upregulation): 10.71 fold
Caspase 8 gene expression, fold change ([3]; upregulation): 1.98 fold
Caspase 9 gene expression, fold change ([3]; upregulation): 7.14 fold
P53 gene expression, fold change ([3]; upregulation): 7.61 fold
PUMA gene expression, fold change ([3]; upregulation): 2.31 fold
